Here are results for 2 molecules from patent US20220289731A1, “MELANOCORTIN-4 RECEPTOR AGONISTS” (LG CHEM, LTD., priority 2019, published 2022).

Assay in all cases: CYP inhibition, recombinant enzyme, fluorescence
Common to all, as to type: in vitro ADME

Data set [1] addresses T1, CYP1A2 (Homo sapiens, UniProt P05177).
T1 sequence (P05177 1-516): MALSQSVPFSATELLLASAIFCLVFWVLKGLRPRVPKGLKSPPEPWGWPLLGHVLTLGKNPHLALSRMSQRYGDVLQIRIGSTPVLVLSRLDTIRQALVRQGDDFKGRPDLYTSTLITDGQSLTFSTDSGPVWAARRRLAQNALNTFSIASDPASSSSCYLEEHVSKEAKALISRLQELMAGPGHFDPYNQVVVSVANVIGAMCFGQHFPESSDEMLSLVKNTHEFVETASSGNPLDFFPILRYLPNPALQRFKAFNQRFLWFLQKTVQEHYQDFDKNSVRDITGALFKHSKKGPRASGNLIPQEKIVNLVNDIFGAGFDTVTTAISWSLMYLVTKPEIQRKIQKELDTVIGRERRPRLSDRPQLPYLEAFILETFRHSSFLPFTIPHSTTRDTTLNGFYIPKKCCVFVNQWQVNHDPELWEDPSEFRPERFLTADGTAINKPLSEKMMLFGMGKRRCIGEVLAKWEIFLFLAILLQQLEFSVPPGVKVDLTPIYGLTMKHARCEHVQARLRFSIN
To be noted: recombinant CYP1A2, pH 7.4, 10 μM compound, 30 min pre-incubation, read-out: CYP inhibition (%) at 10 μM, 1A2. On the procedure:
(§1) The following Table 8 was referred for the use of a probe substrate, positive control, and isozyme and measurement conditions with respect to the measurement of the inhibitory ability of each substance. [table] […] The buffer spiked with experimental compound was mixed with the same volume of CYP isozyme prep solution so that the final concentration was 10 μM, followed by pre-warming for 10 minutes in a 37° C. fluorescence plate-reader. Each well NRS solution (NADPH Regeneration System: 0.22 mM β-NADP, 2.8 mM glucose-6-phosphate, and 0.6 units/mL of glucose-6-phosphate dehydrogenase) was added, followed by pre-incubation for 30 minutes. Thereafter, the reaction was initiated by adding the substrate to the well subjected to pre-incubation and monitored at intervals of one minute at the measurement wavelength for each substrate for 30 minutes. The measured values obtained from the positive control and the compound of Example 1 were compared with the fluorescence intensity of a negative control (no inhibition or compound) to confirm the inhibitory ability of each compound against isozyme. Inhibitory activity (%) was expressed based on the following criteria: […]

The target of data set [2] is CYP3A4 (Homo sapiens, UniProt P08684). To be noted: recombinant CYP3A4, pH 7.4, 10 μM compound, 30 min pre-incubation, read-out: CYP inhibition (%) at 10 μM, 3A4. On the procedure:
as §1

For data set [3], the target named is CYP2C19 (Homo sapiens, UniProt P33261). Conditions: recombinant CYP2C19, pH 7.4, 10 μM compound, 30 min pre-incubation, read-out: CYP inhibition (%) at 10 μM, 2C19. On the procedure: as §1
Data set [4] concerns the target CYP2D6 (Homo sapiens, UniProt P10635). To be noted: recombinant CYP2D6, pH 7.4, 10 μM compound, 30 min pre-incubation, read-out: CYP inhibition (%) at 10 μM, 2D6. As to the method:
as §1

Data set [5] has as its target CYP2C9 (Homo sapiens, UniProt P11712). To be noted: 10 μM compound; for inhibition at 30 min, 10 µM: human, recombinant CYP2C9, pH 7.4, 30 min pre-incubation, read-out: CYP inhibition (%) at 10 μM, 2C9. On the procedure:
as §1

Where only a bound is given, the exact number is not on record here.

CYP2C9, sequence (P11712 whole entry): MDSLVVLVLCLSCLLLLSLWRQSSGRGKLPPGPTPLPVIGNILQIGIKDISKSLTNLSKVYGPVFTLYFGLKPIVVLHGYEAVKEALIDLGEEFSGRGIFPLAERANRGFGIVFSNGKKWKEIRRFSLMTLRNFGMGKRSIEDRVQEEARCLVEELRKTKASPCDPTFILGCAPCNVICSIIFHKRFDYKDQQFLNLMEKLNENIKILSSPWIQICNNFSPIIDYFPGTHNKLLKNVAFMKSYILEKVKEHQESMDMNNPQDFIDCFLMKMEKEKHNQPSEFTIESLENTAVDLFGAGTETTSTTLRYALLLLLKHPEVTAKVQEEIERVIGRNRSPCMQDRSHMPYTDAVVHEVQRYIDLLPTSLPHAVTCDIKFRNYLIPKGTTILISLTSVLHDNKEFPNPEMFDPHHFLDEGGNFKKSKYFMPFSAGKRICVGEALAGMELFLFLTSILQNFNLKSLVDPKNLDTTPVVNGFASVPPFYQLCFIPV
CYP3A4, sequence (P08684 whole entry): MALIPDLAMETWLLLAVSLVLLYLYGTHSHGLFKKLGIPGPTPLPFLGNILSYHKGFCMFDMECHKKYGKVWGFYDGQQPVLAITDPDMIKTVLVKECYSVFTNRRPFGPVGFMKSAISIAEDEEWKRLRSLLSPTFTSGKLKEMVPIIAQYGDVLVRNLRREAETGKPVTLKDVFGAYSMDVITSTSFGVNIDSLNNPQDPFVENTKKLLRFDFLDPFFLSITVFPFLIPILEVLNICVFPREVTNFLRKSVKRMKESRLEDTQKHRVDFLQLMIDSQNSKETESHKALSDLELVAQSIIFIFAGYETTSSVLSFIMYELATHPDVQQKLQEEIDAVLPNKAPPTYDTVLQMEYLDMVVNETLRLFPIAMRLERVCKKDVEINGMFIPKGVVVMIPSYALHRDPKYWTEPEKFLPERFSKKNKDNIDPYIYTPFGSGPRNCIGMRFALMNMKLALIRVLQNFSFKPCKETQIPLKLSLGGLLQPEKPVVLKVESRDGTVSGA
CYP2C19, sequence (P33261 whole entry): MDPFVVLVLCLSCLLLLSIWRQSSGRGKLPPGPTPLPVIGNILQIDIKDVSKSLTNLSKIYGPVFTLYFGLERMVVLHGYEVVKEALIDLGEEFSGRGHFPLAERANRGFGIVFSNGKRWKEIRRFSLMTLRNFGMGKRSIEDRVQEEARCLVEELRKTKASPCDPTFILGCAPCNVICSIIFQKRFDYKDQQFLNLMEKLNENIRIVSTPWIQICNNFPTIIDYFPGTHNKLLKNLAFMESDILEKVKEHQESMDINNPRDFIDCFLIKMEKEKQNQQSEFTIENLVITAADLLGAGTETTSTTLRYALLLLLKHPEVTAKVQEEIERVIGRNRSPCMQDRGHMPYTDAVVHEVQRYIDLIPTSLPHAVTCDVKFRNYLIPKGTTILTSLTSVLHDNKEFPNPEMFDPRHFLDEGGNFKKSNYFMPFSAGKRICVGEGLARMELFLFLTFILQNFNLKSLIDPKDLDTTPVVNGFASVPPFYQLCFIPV
CYP2D6, sequence (P10635 whole entry): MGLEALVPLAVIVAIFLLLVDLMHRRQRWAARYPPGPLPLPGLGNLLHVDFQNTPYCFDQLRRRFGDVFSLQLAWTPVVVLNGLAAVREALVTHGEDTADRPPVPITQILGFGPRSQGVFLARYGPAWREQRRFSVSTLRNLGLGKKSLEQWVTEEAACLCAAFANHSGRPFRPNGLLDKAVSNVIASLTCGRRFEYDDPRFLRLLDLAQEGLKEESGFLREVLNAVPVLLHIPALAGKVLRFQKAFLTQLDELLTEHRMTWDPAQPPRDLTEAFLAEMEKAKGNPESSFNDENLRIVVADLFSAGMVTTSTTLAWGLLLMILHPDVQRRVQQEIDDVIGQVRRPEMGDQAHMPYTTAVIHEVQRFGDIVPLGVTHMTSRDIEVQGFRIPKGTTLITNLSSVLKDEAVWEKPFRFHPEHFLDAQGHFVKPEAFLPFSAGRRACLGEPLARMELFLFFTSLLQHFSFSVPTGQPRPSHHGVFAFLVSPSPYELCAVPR

For orientation: inhibition means the share of the control response that was lost under treatment. For `CC(C)C(=O)N([C@H]1C[C@@H](C(=O)N2CCOCC2)N(C(=O)[C@@H]2CN(C(C)(C)C)C[C@H]2c2ccc(Cl)cc2)C1)[C@H]1CC[C@@H](C)CC1.Cl` [Example 1, N-((3S,5S)-1-((3S,4R)-1-(tert-butyl)-4-(4-chlorophenyl)pyrrolidine-3-carbonyl)-5-(morpholine-4-carbonyl)pyrrolidin-3-yl)-N-((1s,4R)-4-methylcyclohexyl)isobutyramide hydrochloride], the inhibition at 30 min, 10 µM in data set [1], in data set [2], in data set [3], in data set [4] and in data set [5] was < 50% in each case.
Regarding `CC(=O)N(C1CCC(C)(C)CC1)[C@H]1C[C@@H](C(=O)N2CCOCC2)N(C(=O)[C@@H]2CN(C(C)(C)C)C[C@H]2c2ccc(Cl)cc2)C1.Cl` [Comparative Example 2 (A96), N-((3S,5S)-1-((3S,4R)-1-(tert-butyl)-4-(4-chlorophenyl)pyrrolidine-3-carbonyl)-5-(morpholine-4-carbonyl)pyrrolidin-3-yl)-N-(4,4-dimethylcyclohexyl)acetamide hydrochloride], the inhibition at 30 min, 10 µM was < 50% in data set [1]; < 50% in data set [2]; < 50% in data set [3]; < 50% in data set [4]; > 50% in data set [5]. In data set [5], the “Inhibitory ability against CYP2C9 (in words)” value is given as “very high inhibitory ability”.
